Our source for the T/C values is PubChem BioAssay AID256 (DTP/NCI, 2004).

For the test, the system named is CD2F1 mice, L1210 leukemia ip, survival T/C. Description: NCI In Vivo Anticancer Drug Screen. Data for tumor model L1210 Leukemia (intraperitoneal) in CD2F1 (CDF1) mice. The following applies: higher = longer survival. The method, boiled down: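 Read-out first: treated-group measurement over vehicle-control measurement, expressed as a ratio. Animals bore a transplanted tumor line and were dosed with compound or vehicle.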

Structures are written as SMILES. “And” between values parts separate entries of the source, which are not always exact repeats. Equal values may be shown once. Inconclusive results and toxic doses are left out.

As for `CS(=O)(=O)OCCCNCCCOS(C)(=O)=O`, the T/C was 123 % of control (endpoint: mean survival time, dose: 6.3 mg/kg/injection, schedule: Q01DX009 (ip), vehicle: saline); 119 % of control and 114 % of control (endpoint: mean survival time, dose: 6.3 mg/kg/injection, schedule: Q04DX003 (ip), vehicle: saline); 121 % of control (endpoint: mean survival time, dose: 10.0 mg/kg/injection, schedule: Q03DX003 (ip), vehicle: saline); 121 % of control and 120 % of control (endpoint: mean survival time, dose: 12.5 mg/kg/injection, schedule: Q01DX001 (ip), vehicle: saline); 119 % of control (endpoint: mean survival time, dose: 12.5 mg/kg/injection, schedule: Q04DX003 (ip), vehicle: saline); 162 % of control (endpoint: mean survival time, dose: 20.0 mg/kg/injection, schedule: Q01DX007 (ip), vehicle: saline). The T/C was 164 % of control and 170 % of control (endpoint: mean survival time, dose: 20.0 mg/kg/injection, schedule: Q01DX009 (ip), vehicle: saline); 152 % of control (endpoint: mean survival time, dose: 20.0 mg/kg/injection, schedule: Q04DX003 (ip), vehicle: saline); 160 % of control (endpoint: mean survival time, dose: 23.0 mg/kg/injection, schedule: Q01DX009 (ip), vehicle: saline); 110 % of control (endpoint: mean survival time, dose: 25.0 mg/kg/injection, schedule: Q01DX001 (ip), vehicle: saline); 162 % of control [middle of 4 runs] (endpoint: mean survival time, dose: 25.0 mg/kg/injection, schedule: Q01DX009 (ip), vehicle: saline); 151 % of control and 155 % of control (endpoint: mean survival time, dose: 25.0 mg/kg/injection, schedule: Q04DX003 (ip), vehicle: saline). The T/C is, setting by setting: (endpoint: mean survival time, dose: 39.0 mg/kg/injection, schedule: Q01DX009 (ip), vehicle: saline) 171 % of control; (endpoint: mean survival time, dose: 39.0 mg/kg/injection, schedule: Q04DX003 (ip), vehicle: saline) 152 % of control; (endpoint: mean survival time, dose: 40.0 mg/kg/injection, schedule: Q01DX007 (ip), vehicle: saline) 167 % of control; (endpoint: mean survival time, dose: 40.0 mg/kg/injection, schedule: Q01DX009 (ip), vehicle: saline) 171 % of control and 189 % of control and 206 % of control; (endpoint: mean survival time, dose: 40.0 mg/kg/injection, schedule: Q04DX003 (ip), vehicle: saline) 152 % of control; (endpoint: mean survival time, dose: 50.0 mg/kg/injection, schedule: Q01DX001 (ip), vehicle: saline) 150 % of control. Also, the T/C (endpoint: mean survival time, dose: 50.0 mg/kg/injection, schedule: Q01DX009 (ip), vehicle: saline) was 219 % of control and 181 % of control and 239 % of control; the T/C (endpoint: mean survival time, dose: 50.0 mg/kg/injection, schedule: Q04DX003 (ip), vehicle: saline) was 177 % of control [middle of 4 runs]; the T/C (endpoint: mean survival time, dose: 65.0 mg/kg/injection, schedule: Q01DX001 (oral), vehicle: saline) is 106 % of control; the T/C (endpoint: mean survival time, dose: 65.0 mg/kg/injection, schedule: Q01DX009 (ip), vehicle: saline) is 168 % of control; the T/C (endpoint: mean survival time, dose: 65.0 mg/kg/injection, schedule: Q01DX009 (oral), vehicle: saline) is 90 % of control; the T/C (endpoint: mean survival time, dose: 65.0 mg/kg/injection, schedule: Q04DX003 (ip), vehicle: saline) was 179 % of control. For the same compound, the T/C (endpoint: mean survival time, dose: 100.0 mg/kg/injection, schedule: Q01DX001 (ip), vehicle: saline) is 161 % of control and 172 % of control and 155 % of control; the T/C (endpoint: mean survival time, dose: 100.0 mg/kg/injection, schedule: Q01DX009 (ip), vehicle: saline) is 95 % of control and 121 % of control; the T/C (endpoint: mean survival time, dose: 100.0 mg/kg/injection, schedule: Q04DX003 (ip), vehicle: saline) is 261 % of control [middle of 5 runs]; the T/C (endpoint: mean survival time, dose: 108.0 mg/kg/injection, schedule: Q01DX001 (oral), vehicle: saline) was 121 % of control; the T/C (endpoint: mean survival time, dose: 108.0 mg/kg/injection, schedule: Q01DX009 (oral), vehicle: saline) is 86 % of control; the T/C (endpoint: mean survival time, dose: 108.0 mg/kg/injection, schedule: Q04DX003 (ip), vehicle: saline) is 205 % of control. Further, the T/C is 150 % of control (endpoint: mean survival time, dose: 108.0 mg/kg/injection, schedule: Q08DX002 (ip), vehicle: saline); 150 % of control (endpoint: mean survival time, dose: 180.0 mg/kg/injection, schedule: Q01DX001 (ip), vehicle: saline); 119 % of control (endpoint: mean survival time, dose: 180.0 mg/kg/injection, schedule: Q01DX001 (oral), vehicle: saline); 277 % of control and 288 % of control and 517 % of control (endpoint: mean survival time, dose: 200.0 mg/kg/injection, schedule: Q01DX001 (ip), vehicle: saline); 121 % of control and 123 % of control (endpoint: mean survival time, dose: 200.0 mg/kg/injection, schedule: Q04DX003 (ip), vehicle: saline).
Consider `O=C1C(=O)N(CNC(c2ccccc2)c2ccccc2)c2ccccc21`, for which the T/C is 101 % of control (endpoint: mean survival time, dose: 100.0 mg/kg/injection, schedule: Q01DX001 (ip), vehicle: saline with Tween-80) and 86 % of control (endpoint: mean survival time, dose: 400.0 mg/kg/injection, schedule: Q01DX001 (ip), vehicle: saline with Tween-80).
For the compound `CCCC(=O)Nc1ncnc2c1nc(SCc1ccccc1)n2C1OC2COP(=O)(O)OC2C1OC(=O)CCC` (stereo unspecified), the T/C runs as follows: (endpoint: mean survival time, dose: 6.25 mg/kg/injection, schedule: Q01DX005 (ip), vehicle: water) 101 % of control; (endpoint: mean survival time, dose: 12.5 mg/kg/injection, schedule: Q01DX005 (ip), vehicle: water) 93 % of control; (endpoint: mean survival time, dose: 25.0 mg/kg/injection, schedule: Q01DX005 (ip), vehicle: water) 93 % of control; (endpoint: mean survival time, dose: 50.0 mg/kg/injection, schedule: Q01DX005 (ip), vehicle: water) 101 % of control; (endpoint: mean survival time, dose: 100.0 mg/kg/injection, schedule: Q01DX005 (ip), vehicle: water) 101 % of control.
On to `O=C(C[n+]1cccc(C(=O)c2ccccc2)c1)c1ccccc1`, for which the T/C (endpoint: mean survival time, dose: 9.4 mg/kg/injection, schedule: Q01DX009 (ip), vehicle: saline) is 94 % of control; the T/C (endpoint: mean survival time, dose: 18.8 mg/kg/injection, schedule: Q01DX009 (ip), vehicle: saline) was 94 % of control; the T/C (endpoint: mean survival time, dose: 37.5 mg/kg/injection, schedule: Q01DX009 (ip), vehicle: saline) is 93 % of control; the T/C (endpoint: mean survival time, dose: 37.5 mg/kg/injection, schedule: Q04DX003 (ip), vehicle: saline) was 96 % of control; the T/C (endpoint: mean survival time, dose: 75.0 mg/kg/injection, schedule: Q01DX001 (ip), vehicle: saline) was 100 % of control; the T/C (endpoint: mean survival time, dose: 75.0 mg/kg/injection, schedule: Q04DX003 (ip), vehicle: saline) was 94 % of control. In addition, the T/C (endpoint: mean survival time, dose: 150.0 mg/kg/injection, schedule: Q01DX001 (ip), vehicle: saline) was 97 % of control.
For `Cc1nc(CCCCCCCC(=O)O)ccc1O`, the T/C reads like this: (endpoint: mean survival time, dose: 100.0 mg/kg/injection, schedule: Q04DX002 (ip), vehicle: saline) 94 % of control; (endpoint: mean survival time, dose: 200.0 mg/kg/injection, schedule: Q04DX002 (ip), vehicle: saline) 97 % of control; (endpoint: mean survival time, dose: 400.0 mg/kg/injection, schedule: Q04DX002 (ip), vehicle: saline) 109 % of control.
As to `O=S(=O)(O)c1cc2cc(S(=O)(=O)O)c(O)cc2cc1O.[NH-]C1CCCCC1[NH-].[Pt+2]`, the T/C (endpoint: median survival time, dose: 3.12 mg/kg/injection, schedule: Q04DX003 (ip), vehicle: saline) is 114 % of control and 118 % of control; the T/C (endpoint: median survival time, dose: 6.25 mg/kg/injection, schedule: Q04DX003 (ip), vehicle: saline) is 118 % of control and 110 % of control; the T/C (endpoint: median survival time, dose: 12.5 mg/kg/injection, schedule: Q04DX003 (ip), vehicle: saline) was 113 % of control and 112 % of control; the T/C (endpoint: median survival time, dose: 50.0 mg/kg/injection, schedule: Q04DX003 (ip), vehicle: saline) was 158 % of control; the T/C (endpoint: median survival time, dose: 100.0 mg/kg/injection, schedule: Q04DX003 (ip), vehicle: saline) was 154 % of control and 207 % of control; the T/C (endpoint: median survival time, dose: 200.0 mg/kg/injection, schedule: Q04DX003 (ip), vehicle: saline) was 229 % of control and 365 % of control.
Consider `[N-]=[N+]=NC1CC(n2ccc(N)nc2=O)OC1CO` (stereo unspecified), for which the T/C (endpoint: median survival time, dose: 12.5 mg/kg/injection, schedule: Q01DX005 (ip), vehicle: saline) was 113 % of control; the T/C (endpoint: median survival time, dose: 25.0 mg/kg/injection, schedule: Q01DX005 (ip), vehicle: saline) was 109 % of control; the T/C (endpoint: median survival time, dose: 50.0 mg/kg/injection, schedule: Q01DX005 (ip), vehicle: saline) was 98 % of control; the T/C (endpoint: median survival time, dose: 100.0 mg/kg/injection, schedule: Q01DX005 (ip), vehicle: saline) was 107 % of control; the T/C (endpoint: median survival time, dose: 200.0 mg/kg/injection, schedule: Q01DX005 (ip), vehicle: saline) is 103 % of control.
For the compound `OCC1OC(n2cnc3c4ccccc4ccc32)C(O)C1O` (stereo unspecified), the T/C is, setting by setting: (endpoint: median survival time, dose: 10.0 mg/kg/injection, schedule: Q01DX005 (ip), vehicle: saline with Tween-80) 110 % of control; (endpoint: median survival time, dose: 16.25 mg/kg/injection, schedule: Q01DX005 (ip), vehicle: saline with Tween-80) 98 % of control; (endpoint: median survival time, dose: 20.0 mg/kg/injection, schedule: Q01DX005 (ip), vehicle: saline with Tween-80) 103 % of control; (endpoint: median survival time, dose: 32.5 mg/kg/injection, schedule: Q01DX005 (ip), vehicle: saline with Tween-80) 100 % of control; (endpoint: median survival time, dose: 40.0 mg/kg/injection, schedule: Q01DX005 (ip), vehicle: saline with Tween-80) 97 % of control; (endpoint: median survival time, dose: 65.0 mg/kg/injection, schedule: Q01DX005 (ip), vehicle: saline with Tween-80) 107 % of control. In addition, the T/C was 103 % of control (endpoint: median survival time, dose: 80.0 mg/kg/injection, schedule: Q01DX005 (ip), vehicle: saline with Tween-80) and 97 % of control (endpoint: median survival time, dose: 130.0 mg/kg/injection, schedule: Q01DX005 (ip), vehicle: saline with Tween-80).
